How the values were obtained:
[1] = system: rats reduced learning ability by tetrabenazine; test: Conditioned avoidance task in the shuttle box (tetrabenazine-treated rats); format: in vivo, rat; settings: tetrabenazine 1 mg/kg s.c., significance and direction
Method: The method described in Life Sci., 58, 817-827 (1996) was used. The effects on conditioned avoidance reflex (CARs) was analyzed in the shuttle box using male and female rats (weighing 200-220 g) whose leaning abilities were reduced by treatment of tetrabenazine. The instrument was constructed, according to the device described in Psychopharmacologia 10, 1-5 (1966) by the Research Institute for Electrical Industry (Budapest, Hungary). The male and female rats (weighing 200-220 g) were trained to cross the berrier under the influence of a conditioned stimulus (CS) (light flash and buzzer sounds). […] And the performance which was not related to this condition was noted as an intersignal reaction (IR). The rats were trained with 100 trials per day for 5 days. One trial consisted of 15 sec intertrial interval. The saline solution of tetrabenazine was administered at a dose of 1 mg/kg subcutaneously before one hour prior to the test and then the solution of the compounds of this invention were administered at the doses of 1, 2, 2.5 and 5 mg/kg subcutaneously with the simultaneous administration of tetrabenazine. The nmbers of CARs, EFs and IRs were automatically counted and evaluated by multi-way analysis of variance (ANOVA).

[2] = system: dopamine release, striatum; test: Release of biogenic amines from brain tissue: dopamine, striatum; format: in vivo, Wistar rats
Method: (§1) The method described in Life Sci., 56, 611-620 (1995) was used. After Wistar rats were decapitated, appropriate brain samples, which were striatun, substantia nigra, tuberculum olfactorium, locus coeruleus and raphe, were removed quickly and soaked in oxygenated (95% O2 and 5% CO2) Krebs solution at 37° C. The composition of Krebs solution was as follows in […]: NaCl 111, KCl 4.7, CaCl2 2.5, MgSO4 1.64, NaHCO3 25, KH2 PO4 1.2, glucose 11, 50 mg/l ascorbic add and 20 mg/l EDTA-2 Na. The preparations, soaked in one organ bath, were as follows: 1) four pieces of striatum (each halved), 2) four pieces of substantia nigra, 3) four pieces of tuberculum olfactorium; 4) eight pieces of locus coeruleus; 5) eight pieces of raphe. After incubation of the appropriate tissue for 20 min, the Krebs solution was replaced, the tissue soaked for 20 min in Krebs solution dissolving the compounds of this invention and the amount of biogenic amine released during this period of time was estimate. The compounds of this invention and PPAP, control compound, were dissolved in saline and were administered subcutaneously before 30 min to removing brain sample. For measuring noradrenaline and dopamine, samples were purified on 60 mg alumina containing micro columns (BDH Chemicals Ltd.) according to the method described in J. Pharmacol. Exp. Ther., 138, 360-372 (1962) For measuring serotonin, samples were purified on 15 mg Sephadex G-10 micro columns (Pharmacia). Dopamine, noradrenaline and serotonin were determined by high performance liquid chromatography (Waters 746 data module) with electrochemical detection (Waters 460 electrochemical detector). Waters Resolve 5μ Spherical C18 3.9×150 mm column was used as separating column and triethylamine-phosphate buffer (pH 5.2), containing 200 mg/l octane sulfonate sodium and 18 mg/l EDTA-2 Na with 6% acetonitrile, was used as mobile phase. The release amount of appropriate amine was noted as nmol/g tissue released for 20 min. deference of means tested by Student's t-test and significant level was set at P<.05.

[3] = system: dopamine release, substantia nigra; test: Release of biogenic amines from brain tissue: dopamine, substantia nigra; format: in vivo, Wistar rats
Method: as §1

[4] = system: dopamine release, tuberculum olfactorium; test: Release of biogenic amines from brain tissue: dopamine, tuberculum olfactorium; format: in vivo, Wistar rats
Method: as §1

[5] = system: noradrenaline release, locus coeruleus; test: Release of biogenic amines from brain tissue: noradrenaline, locus coeruleus; format: in vivo, Wistar rats
Method: as §1

[6] = system: serotonin release, raphe; test: Release of biogenic amines from brain tissue: serotonin, raphe; format: in vivo, Wistar rats
Method: as §1

[7] = molecular target: α1 receptor; test: Affinity to α1 receptor; parameters: species or system rat; settings: read-out: Affinity to α1 receptor (MIC50; mole concentration for 50% inhibition of binding); 0.25 nM ^3H-prazocin; 90 min
Method: The solution of receptor was prepared as follows. As soon as rats were decapitated, brain was removed and its weight was measured. Its brain was homogenized in ten times volumes of ice-cold 0.35 M sucrose (pH 7.4) by glass homogenizer with teflon pestle which was revolted by motors. Thereafter, the homogenate was centrifuged at 4° C. at 900×g for 10 min and the supernatant was, furthermore, recentrifuged at 4° C. at 22,000×g for 20 min. The precipitate was suspended by addition of 5 mM phosphate buffer solution (pH 7.4). After the suspension was incubated at 37° C. for 30 min, the suspension was recentrifuged at 4° C. at 22,000×g for 20 min. The precipitate was resuspended by addition of 10 ml of 5 mM phosphate buffer solution (pH 8.0). The precipitate was used as the solution of receptor.
^3 H-prazocin was used as a ligand. 0.25 nM ^3 H-prazocin in 5 mM phosphate buffer (pH 8.0), the compound of this invention and the solution of receptor were added in tube and the mixture were incubated at 25° C. for 90 min. In addition, the […] binding was shown by binding value of ^3 H-prazocin under the coexistence with 0.1 μM prazocin. The binding reaction was carried out as follows. After ^3 H-prazocin (binding type: B) bound to receptor using glassfiberfilter (pore size: 0.5 μm, Whatman GF/C.) and free type of prazocin (free type: F) were separated with B/F separator (Brandel, USA), only the binding type of ^3 H-prazocin was collected. The binding type of ^3 H-prazocin absorbed to glass-fiber filter was washed with ice-cold saline solution and was remove to vial. After 10 ml of scintillation cocktail was added in it, the radioactivity was determined. From the binding inhibition rate of α1 receptor and ligand, affinity of the compounds of this invention to α1 receptor was measured.
If affinity of certain compound to a receptor is high, the binding ligand and receptor is inhibited.

[8] = molecular target: α2 receptor; test: Affinity to α2 receptor; parameters: species or system rat; settings: read-out: Affinity to α2 receptor (MIC50; mole concentration for 50% inhibition of binding); 0.7 nM ^3H-rauwolscine
[9] = molecular target: T1, D1 receptor (Rattus norvegicus, UniProt P18901); test: Affinity to D1 receptor; format: binding
T1 construct: The precipitate was used as the solution of receptor; from tissue; host or cells: rat brain (whole) crude membranes
T1 sequence (P18901 whole entry): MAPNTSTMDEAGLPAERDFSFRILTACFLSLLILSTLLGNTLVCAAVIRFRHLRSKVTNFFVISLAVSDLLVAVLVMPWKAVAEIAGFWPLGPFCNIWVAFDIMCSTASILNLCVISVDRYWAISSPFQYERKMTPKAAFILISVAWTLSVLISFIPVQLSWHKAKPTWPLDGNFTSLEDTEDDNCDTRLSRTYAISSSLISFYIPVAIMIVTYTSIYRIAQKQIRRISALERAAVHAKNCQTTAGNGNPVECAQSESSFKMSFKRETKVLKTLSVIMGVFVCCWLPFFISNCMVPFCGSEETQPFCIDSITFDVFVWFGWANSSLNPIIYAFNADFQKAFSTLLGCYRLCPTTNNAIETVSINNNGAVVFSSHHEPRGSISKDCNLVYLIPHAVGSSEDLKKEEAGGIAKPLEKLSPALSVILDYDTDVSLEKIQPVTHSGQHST

[10] = molecular target: D2 receptor; test: Affinity to D2 receptor; parameters: species or system rat; settings: read-out: Affinity to D2 receptor (MIC50; mole concentration for 50% inhibition of binding); 2.0 nM spiperone
[11] = molecular target: 5-HT1 receptor; test: Affinity to 5-HT1 receptor; parameters: species or system rat; settings: read-out: Affinity to 5-HT1 receptor (MIC50; mole concentration for 50% inhibition of binding); 2 nM ^3H-5-HT
[12] = molecular target: T2, 5-HT2 receptor (Rattus norvegicus, UniProt P14842); test: Affinity to 5-HT2 receptor; format: binding
T2 construct: The precipitate was used as the solution of receptor; from tissue; host or cells: rat brain (whole) crude membranes
T2 sequence (P14842 whole entry): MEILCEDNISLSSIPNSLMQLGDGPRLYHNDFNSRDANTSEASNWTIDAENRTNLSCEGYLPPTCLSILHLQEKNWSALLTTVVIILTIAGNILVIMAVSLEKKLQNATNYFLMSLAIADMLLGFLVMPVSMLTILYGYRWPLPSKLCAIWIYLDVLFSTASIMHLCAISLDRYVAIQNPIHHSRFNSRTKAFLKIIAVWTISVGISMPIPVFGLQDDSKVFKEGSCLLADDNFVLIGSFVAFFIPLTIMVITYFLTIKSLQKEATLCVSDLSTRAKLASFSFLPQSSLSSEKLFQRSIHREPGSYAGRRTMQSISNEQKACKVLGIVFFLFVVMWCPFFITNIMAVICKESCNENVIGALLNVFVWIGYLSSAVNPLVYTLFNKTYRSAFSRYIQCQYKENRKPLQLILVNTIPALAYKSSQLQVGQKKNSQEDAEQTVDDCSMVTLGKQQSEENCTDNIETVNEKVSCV

[13] = Toxicity screening using primary cultured hepatocyte (LDH release); format: cell-based, rat; settings: rat, primary hepatocytes, 24 hr, control 0.5% saline or 0.5% DMSO, read-out: Percent control of LDH release
Method: (§2) The hepatocytes was prepared from rat liver by collagenase perfusion method and suspension containing 5×10^5 cells/ml were prepared. After cultivation for 24 hr, the suspension was exchanged to the William's Medium E (GIBCO BRL) containing 10 or 100 μM of the compounds of this invention. After cultivation for 24 hr, the activity of lactate dehydrogenase (LDH) released in the medium was measured.

[14] = system: primary cultured hepatocyte; test: as above; format: cell-based, rat; settings: 10 μM
Method: as §2

| SMILES | Condition Avoidance Reflex (CARs) ([1]; 1 mg/kg s.c.) | Release of dopamine, striatum ([2]; 0.01 mg/kg s.c.) | Release of dopamine, substantia nigra ([3]; 0.01 mg/kg s.c.) | Release of dopamine, tuberculum olfactorium ([4]; 0.01 mg/kg s.c.) | Release of noradrenaline, locus coeruleus ([5]; 0.01 mg/kg s.c.) | Release of serotonin, raphe ([6]; 0.01 mg/kg s.c.) | IC50 [7] [µM] | IC50 [8] [µM] | IC50 [9] [µM] | IC50 [10] [µM] | IC50 [11] [µM] | IC50 [12] [µM] | activity at 24 h, 10 µM [13] [%] | activity at 24 h, 100 µM [13] [%] | Condition Avoidance Reflex (CARs) ([1]; 5 mg/kg s.c.) | Intersignal Reactions (IRs) ([1]; 5 mg/kg s.c.) | further results |
| --- | --- | --- | --- | --- | --- | --- | --- | --- | --- | --- | --- | --- | --- | --- | --- | --- | --- |
| CCCNC(CCC)Cc1cccc2[nH]ccc12.Cl (stereo not shown) [Compound No. 21, 1-(Indol-4-yl)-2-propylaminopentane Hydrochloride] | **** .Arrow-up bold. | 5.4 ± 0.17 nmol/g tissue, for 20 min | 10.0 ± 0.30 nmol/g tissue, for 20 min | 7.4 ± 0.15 nmol/g tissue, for 20 min | 4.6 ± 0.40 nmol/g tissue, for 20 min | 0.354 ± 0.00 nmol/g tissue, for 20 min | > 10 | 0.7 | > 10 | > 10 | > 10 | > 10 | 110 ± 4.42 | 130 ± 9.68 |  |  | Condition Avoidance Reflex (CARs) ([1]; 0.5 mg/kg s.c.): ** .Arrow-up bold. |
| C#CCN(C)[C@H](C)Cc1ccccc1 [Selegiline, reference compound] |  |  |  |  |  |  | > 10 | 2 |  | > 10 | > 10 | > 10 |  |  |  |  |  |
| CC(C)C[C@H]1C(=O)N2CCC[C@H]2[C@]2(O)O[C@](NC(=O)[C@@H]3C=C4c5cccc6[nH]c(Br)c(c56)C[C@H]4N(C)C3)(C(C)C)C(=O)N12 [Bromocriptine, reference compound] |  |  |  |  |  |  | 0.01 | 0.1 | 10 | 0.01 | 0.1 | 1 |  |  |  |  |  |
| CCCNC(CCC)Cc1cc2ccccc2o1.Cl (stereo not shown) [Compound No. 25, 1-(Benzofuran-2-yl)-2-propylaminopentane Hydrochloride] | **** .Arrow-up bold. | 5.3 ± 0.14 nmol/g tissue, for 20 min | 6.6 ± 0.04 nmol/g tissue, for 20 min | 6.5 ± 0.20 nmol/g tissue, for 20 min | 4.3 ± 0.20 nmol/g tissue, for 20 min | 0.457 ± 0.04 nmol/g tissue, for 20 min | > 10 | 1 | > 10 | > 10 | > 10 | 20 | 90.3 ± 2.85 | 112 ± 37 | **** .Arrow-up bold. | * .Arrow-up bold. | Escape Failures (EFs) ([1]; 1 mg/kg s.c.): * .dwnarw. |
| CCCNC(CCC)Cc1ccccc1 (racemic) [PPAP, 1-phenyl-2-propylaminopentane, reference compound] |  |  |  |  |  |  |  |  |  |  |  |  | 127 ± 5.45 | 152 ± 11.1 | **** .Arrow-up bold. | **** .Arrow-up bold. | Release of dopamine, striatum ([2]; 0.25 mg/kg s.c.): 3.5 ± 0.19 nmol/g tissue, for 20 min; Release of dopamine, striatum ([2]; 1.00 mg/kg s.c.): 3.6 ± 0.19 nmol/g tissue, for 20 min; Release of dopamine, substantia nigra ([3]; 0.25 mg/kg s.c.): 4.0 ± 0.24 nmol/g tissue, for 20 min; Release of dopamine, substantia nigra ([3]; 1.00 mg/kg s.c.): 4.0 ± 0.21 nmol/g tissue, for 20 min; Release of dopamine, tuberculum olfactorium ([4]; 0.25 mg/kg s.c.): 3.7 ± 0.10 nmol/g tissue, for 20 min; Release of dopamine, tuberculum olfactorium ([4]; 1.00 mg/kg s.c.): 3.2 ± 0.21 nmol/g tissue, for 20 min; Release of noradrenaline, locus coeruleus ([5]; 0.25 mg/kg s.c.): 3.8 ± 0.30 nmol/g tissue, for 20 min; Release of noradrenaline, locus coeruleus ([5]; 1.00 mg/kg s.c.): 4.6 ± 0.15 nmol/g tissue, for 20 min; Release of serotonin, raphe ([6]; 0.25 mg/kg s.c.): 0.416 ± 0.03 nmol/g tissue, for 20 min; Release of serotonin, raphe ([6]; 1.00 mg/kg s.c.): 0.741 ± 0.01 nmol/g tissue, for 20 min; LDH release, significance in words [14]: released LDH significantly |
